In ChEMBL document CHEMBL5678810:
Active and inactive are the calls of the source. The calls are words filed in the database; no cut-off is given here.

What was measured:
[1] = biological target: Serine/threonine-protein kinase PAK 4 (Homo sapiens) (UniProt O96013); assay: Inhibition of T7 bacteriophage fused human PAK4 at 10 uM by KINOMEscan analysis relative to control
[2] = biological target: Dual specificity tyrosine-phosphorylation-regulated kinase 1A (Homo sapiens) (UniProt Q13627); assay: Inhibition of T7 bacteriophage fused human DYRK1A at 10 uM by KINOMEscan analysis relative to control; values are per cent of control
[3] = biological target: Ephrin type-A receptor 6 (Homo sapiens) (UniProt Q9UF33); assay: Inhibition of T7 bacteriophage fused human EPHA6 at 10 uM by KINOMEscan analysis relative to control
[4] = system: Epidermal growth factor receptor (Homo sapiens), P00533 [L858R]; assay: Inhibition of T7 bacteriophage fused human EGFR L858R mutant at 10 uM by KINOMEscan analysis relative to control; values are per cent of control
[5] = system: Receptor-type tyrosine-protein kinase FLT3 (Homo sapiens), P36888 [UNDEFINED MUTATION]; assay: Inhibition of T7 bacteriophage fused human FLT3 ITD mutant at 10 uM by KINOMEscan analysis relative to control
[6] = biological target: Ephrin type-B receptor 1 (Homo sapiens) (UniProt P54762); assay: Inhibition of T7 bacteriophage fused human EPHB1 at 10 uM by KINOMEscan analysis relative to control; values are per cent of control
[7] = system: Receptor-type tyrosine-protein kinase FLT3 (Homo sapiens), P36888 [R834Q]; assay: Inhibition of T7 bacteriophage fused human FLT3 R834Q mutant at 10 uM by KINOMEscan analysis relative to control
[8] = biological target: Serine/threonine-protein kinase DCLK1 (Homo sapiens) (UniProt O15075); assay: Inhibition of T7 bacteriophage fused human DCAMKL1 at 10 uM by KINOMEscan analysis relative to control; values are per cent of control
[9] = biological target: 3-phosphoinositide-dependent protein kinase 1 (Homo sapiens) (UniProt O15530); assay: Inhibition of T7 bacteriophage fused human PDPK1 at 10 uM by KINOMEscan analysis relative to control
[10] = biological target: RAC-beta serine/threonine-protein kinase (Homo sapiens) (UniProt P31751); assay: Inhibition of T7 bacteriophage fused human AKT2 at 10 uM by KINOMEscan analysis relative to control
[11] = biological target: Ephrin type-B receptor 6 (Homo sapiens) (UniProt O15197); assay: Inhibition of T7 bacteriophage fused human EPHB6 at 10 uM by KINOMEscan analysis relative to control
[12] = biological target: LIM domain kinase 1 (Homo sapiens) (UniProt P53667); assay: Inhibition of T7 bacteriophage fused human LIMK1 at 10 uM by KINOMEscan analysis relative to control; values are per cent of control
[13] = biological target: Proto-oncogene tyrosine-protein kinase receptor Ret (Homo sapiens) (UniProt P07949); assay: Inhibition of T7 bacteriophage fused human RET at 10 uM by KINOMEscan analysis relative to control
[14] = biological target: Bone morphogenetic protein receptor type-1B (Homo sapiens) (UniProt O00238); assay: Inhibition of T7 bacteriophage fused human BMPR1B at 10 uM by KINOMEscan analysis relative to control
[15] = biological target: Leucine-rich repeat serine/threonine-protein kinase 2 (Homo sapiens) (UniProt Q5S007); assay: Inhibition of T7 bacteriophage fused human LRRK2 at 10 uM by KINOMEscan analysis relative to control; values are per cent of control
[16] = biological target: Calcium/calmodulin-dependent protein kinase type 1 (Homo sapiens) (UniProt Q14012); assay: Inhibition of T7 bacteriophage fused human CAMK1 at 10 uM by KINOMEscan analysis relative to control
[17] = biological target: Calcium/calmodulin-dependent protein kinase type II subunit alpha (Homo sapiens) (UniProt Q9UQM7); assay: Inhibition of T7 bacteriophage fused human CAMK2A at 10 uM by KINOMEscan analysis relative to control
[18] = system: Phosphatidylinositol 4,5-bisphosphate 3-kinase catalytic subunit alpha isoform (Homo sapiens), P42336 [E542K]; assay: Inhibition of T7 bacteriophage fused human PIK3CA E542K mutant at 10 uM by KINOMEscan analysis relative to control
[19] = biological target: Dual specificity mitogen-activated protein kinase kinase 3 (Homo sapiens) (UniProt P46734); assay: Inhibition of T7 bacteriophage fused human MEK3 at 10 uM by KINOMEscan analysis relative to control; values are per cent of control
[20] = biological target: Serine/threonine-protein kinase Nek1 (Homo sapiens) (UniProt Q96PY6); assay: Inhibition of T7 bacteriophage fused human NEK1 at 10 uM by KINOMEscan analysis relative to control; values are per cent of control
[21] = system: Tyrosine-protein kinase ABL1 (Homo sapiens), P00519 [Y253F]; assay: Inhibition of T7 bacteriophage fused human phosphorylated ABL1 Y253F mutant at 10 uM by KINOMEscan analysis relative to control
[22] = biological target: Cyclin-G-associated kinase (Homo sapiens) (UniProt O14976); assay: Inhibition of T7 bacteriophage fused human GAK at 10 uM by KINOMEscan analysis relative to control; values are per cent of control
[23] = biological target: cAMP-dependent protein kinase catalytic subunit alpha (Homo sapiens) (UniProt P17612); assay: Inhibition of T7 bacteriophage fused human PKAC-alpha at 10 uM by KINOMEscan analysis relative to control
[24] = system: Serine/threonine-protein kinase B-raf (Homo sapiens), P15056 [V600E]; assay: Inhibition of T7 bacteriophage fused human BRAF V600E mutant at 10 uM by KINOMEscan analysis relative to control
[25] = biological target: Ankyrin repeat and protein kinase domain-containing protein 1 (Homo sapiens) (UniProt Q8NFD2); assay: Inhibition of T7 bacteriophage fused human ANKK1 at 10 uM by KINOMEscan analysis relative to control
[26] = biological target: Tyrosine-protein kinase Fes/Fps (Homo sapiens) (UniProt P07332); assay: Inhibition of T7 bacteriophage fused human FES at 10 uM by KINOMEscan analysis relative to control; values are per cent of control
[27] = biological target: Ephrin type-A receptor 1 (Homo sapiens) (UniProt P21709); assay: Inhibition of T7 bacteriophage fused human EPHA1 at 10 uM by KINOMEscan analysis relative to control
[28] = biological target: Leucine-rich repeat serine/threonine-protein kinase 2 (Homo sapiens) (UniProt Q5S007); assay: Inhibition of LRRK2 phosphorylation at Ser935 residue in EBV immortalized human derived lymphoblastoid cells at 0.01 to 3 uM incubated for 90 mins by immunoblot analysis; type: cell-based; conditions: Lymphoblastoid cell, dose 0.01-3 µM

Chain of Leucine-rich repeat serine/threonine-protein kinase 2 (Homo sapiens) (Q5S007 whole entry, the tested form may be a part): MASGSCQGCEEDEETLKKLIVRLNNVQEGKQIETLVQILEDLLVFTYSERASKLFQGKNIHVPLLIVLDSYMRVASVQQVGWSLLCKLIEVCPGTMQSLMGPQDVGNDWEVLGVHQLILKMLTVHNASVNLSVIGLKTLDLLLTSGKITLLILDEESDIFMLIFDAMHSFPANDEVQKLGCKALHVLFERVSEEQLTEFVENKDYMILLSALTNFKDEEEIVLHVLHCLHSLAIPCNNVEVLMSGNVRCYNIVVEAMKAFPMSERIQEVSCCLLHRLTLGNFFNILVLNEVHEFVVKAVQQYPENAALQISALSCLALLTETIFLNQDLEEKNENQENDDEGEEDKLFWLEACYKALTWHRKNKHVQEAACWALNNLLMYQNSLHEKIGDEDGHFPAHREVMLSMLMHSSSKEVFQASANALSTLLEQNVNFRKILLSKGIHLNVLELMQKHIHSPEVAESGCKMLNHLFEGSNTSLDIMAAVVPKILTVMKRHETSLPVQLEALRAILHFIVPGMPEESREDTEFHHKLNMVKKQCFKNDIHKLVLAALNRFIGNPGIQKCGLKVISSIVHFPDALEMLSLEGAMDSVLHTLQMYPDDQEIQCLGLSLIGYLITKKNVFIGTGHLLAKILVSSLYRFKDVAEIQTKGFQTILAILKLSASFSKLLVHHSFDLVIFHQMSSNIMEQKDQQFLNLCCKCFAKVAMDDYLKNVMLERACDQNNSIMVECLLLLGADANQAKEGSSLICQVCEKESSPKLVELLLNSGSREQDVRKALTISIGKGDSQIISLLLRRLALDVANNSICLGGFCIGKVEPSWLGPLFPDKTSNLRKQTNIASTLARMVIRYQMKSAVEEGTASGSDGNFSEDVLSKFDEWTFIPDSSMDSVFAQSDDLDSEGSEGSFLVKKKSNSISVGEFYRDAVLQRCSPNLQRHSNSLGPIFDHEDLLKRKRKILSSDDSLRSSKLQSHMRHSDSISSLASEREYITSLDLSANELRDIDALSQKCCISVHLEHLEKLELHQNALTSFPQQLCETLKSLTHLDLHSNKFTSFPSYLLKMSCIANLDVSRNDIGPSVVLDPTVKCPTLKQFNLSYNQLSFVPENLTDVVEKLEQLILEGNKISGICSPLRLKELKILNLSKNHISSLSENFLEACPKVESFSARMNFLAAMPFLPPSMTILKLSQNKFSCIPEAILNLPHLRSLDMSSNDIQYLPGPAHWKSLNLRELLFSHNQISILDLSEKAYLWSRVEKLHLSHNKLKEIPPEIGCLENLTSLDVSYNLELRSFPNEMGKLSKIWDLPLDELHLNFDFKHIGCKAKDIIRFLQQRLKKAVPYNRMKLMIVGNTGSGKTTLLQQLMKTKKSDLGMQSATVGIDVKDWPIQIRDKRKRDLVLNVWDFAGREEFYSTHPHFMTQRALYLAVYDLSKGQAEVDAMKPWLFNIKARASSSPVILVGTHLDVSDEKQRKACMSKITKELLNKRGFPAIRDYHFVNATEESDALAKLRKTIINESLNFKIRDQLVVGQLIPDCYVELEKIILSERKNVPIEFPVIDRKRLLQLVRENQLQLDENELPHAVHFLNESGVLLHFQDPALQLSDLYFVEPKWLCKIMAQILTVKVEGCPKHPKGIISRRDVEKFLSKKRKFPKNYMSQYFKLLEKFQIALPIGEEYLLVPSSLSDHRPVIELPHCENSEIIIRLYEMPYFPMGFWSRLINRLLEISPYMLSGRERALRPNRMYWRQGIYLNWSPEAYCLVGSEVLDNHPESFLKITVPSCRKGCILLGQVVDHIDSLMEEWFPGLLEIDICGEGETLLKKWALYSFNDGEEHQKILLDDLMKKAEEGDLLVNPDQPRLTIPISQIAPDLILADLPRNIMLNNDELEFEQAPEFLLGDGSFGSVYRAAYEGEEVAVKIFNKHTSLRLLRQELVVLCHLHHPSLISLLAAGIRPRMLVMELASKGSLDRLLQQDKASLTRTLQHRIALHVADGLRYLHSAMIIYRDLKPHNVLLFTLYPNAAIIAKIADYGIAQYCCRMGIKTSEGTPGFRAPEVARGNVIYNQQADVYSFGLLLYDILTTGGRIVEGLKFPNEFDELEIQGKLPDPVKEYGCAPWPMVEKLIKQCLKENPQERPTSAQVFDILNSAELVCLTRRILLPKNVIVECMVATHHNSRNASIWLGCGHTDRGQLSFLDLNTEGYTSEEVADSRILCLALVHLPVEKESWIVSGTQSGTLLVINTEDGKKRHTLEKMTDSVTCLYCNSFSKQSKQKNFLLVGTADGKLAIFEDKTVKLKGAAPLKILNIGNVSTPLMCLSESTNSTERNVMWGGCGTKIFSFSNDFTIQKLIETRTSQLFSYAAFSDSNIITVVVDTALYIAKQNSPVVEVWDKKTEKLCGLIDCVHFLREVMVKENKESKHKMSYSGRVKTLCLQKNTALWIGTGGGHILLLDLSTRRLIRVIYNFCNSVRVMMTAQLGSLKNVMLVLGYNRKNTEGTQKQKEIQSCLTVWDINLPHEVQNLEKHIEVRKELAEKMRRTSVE
Chain of Ephrin type-A receptor 6 (Homo sapiens) (Q9UF33 whole entry, the tested form may be a part): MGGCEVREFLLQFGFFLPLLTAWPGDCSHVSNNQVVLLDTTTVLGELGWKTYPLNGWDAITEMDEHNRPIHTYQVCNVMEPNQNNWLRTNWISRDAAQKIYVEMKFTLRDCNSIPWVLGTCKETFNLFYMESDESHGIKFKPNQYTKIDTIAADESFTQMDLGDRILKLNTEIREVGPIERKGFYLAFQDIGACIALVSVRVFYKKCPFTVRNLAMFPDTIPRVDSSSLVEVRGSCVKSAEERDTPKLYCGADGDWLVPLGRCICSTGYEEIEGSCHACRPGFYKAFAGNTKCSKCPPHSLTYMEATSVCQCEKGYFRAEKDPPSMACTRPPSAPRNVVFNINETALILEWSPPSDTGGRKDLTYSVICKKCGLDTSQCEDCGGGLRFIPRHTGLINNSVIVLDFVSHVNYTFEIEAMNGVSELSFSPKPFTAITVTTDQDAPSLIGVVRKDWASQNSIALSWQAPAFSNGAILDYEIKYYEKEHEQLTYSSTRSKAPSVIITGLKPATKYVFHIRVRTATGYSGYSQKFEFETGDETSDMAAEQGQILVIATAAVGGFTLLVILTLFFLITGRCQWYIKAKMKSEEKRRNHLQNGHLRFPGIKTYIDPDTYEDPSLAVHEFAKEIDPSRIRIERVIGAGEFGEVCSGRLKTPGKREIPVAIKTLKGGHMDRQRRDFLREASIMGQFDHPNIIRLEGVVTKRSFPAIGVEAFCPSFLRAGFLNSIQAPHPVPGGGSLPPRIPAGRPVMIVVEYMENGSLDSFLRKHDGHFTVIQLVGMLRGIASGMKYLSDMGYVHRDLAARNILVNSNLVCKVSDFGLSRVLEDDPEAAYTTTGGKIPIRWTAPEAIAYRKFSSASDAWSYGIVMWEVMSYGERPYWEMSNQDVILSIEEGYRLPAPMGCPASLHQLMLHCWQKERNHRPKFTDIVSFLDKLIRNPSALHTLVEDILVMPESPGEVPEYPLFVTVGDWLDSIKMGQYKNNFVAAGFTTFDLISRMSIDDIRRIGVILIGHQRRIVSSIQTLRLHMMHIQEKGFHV
Chain of Serine/threonine-protein kinase Nek1 (Homo sapiens) (Q96PY6 whole entry, the tested form may be a part): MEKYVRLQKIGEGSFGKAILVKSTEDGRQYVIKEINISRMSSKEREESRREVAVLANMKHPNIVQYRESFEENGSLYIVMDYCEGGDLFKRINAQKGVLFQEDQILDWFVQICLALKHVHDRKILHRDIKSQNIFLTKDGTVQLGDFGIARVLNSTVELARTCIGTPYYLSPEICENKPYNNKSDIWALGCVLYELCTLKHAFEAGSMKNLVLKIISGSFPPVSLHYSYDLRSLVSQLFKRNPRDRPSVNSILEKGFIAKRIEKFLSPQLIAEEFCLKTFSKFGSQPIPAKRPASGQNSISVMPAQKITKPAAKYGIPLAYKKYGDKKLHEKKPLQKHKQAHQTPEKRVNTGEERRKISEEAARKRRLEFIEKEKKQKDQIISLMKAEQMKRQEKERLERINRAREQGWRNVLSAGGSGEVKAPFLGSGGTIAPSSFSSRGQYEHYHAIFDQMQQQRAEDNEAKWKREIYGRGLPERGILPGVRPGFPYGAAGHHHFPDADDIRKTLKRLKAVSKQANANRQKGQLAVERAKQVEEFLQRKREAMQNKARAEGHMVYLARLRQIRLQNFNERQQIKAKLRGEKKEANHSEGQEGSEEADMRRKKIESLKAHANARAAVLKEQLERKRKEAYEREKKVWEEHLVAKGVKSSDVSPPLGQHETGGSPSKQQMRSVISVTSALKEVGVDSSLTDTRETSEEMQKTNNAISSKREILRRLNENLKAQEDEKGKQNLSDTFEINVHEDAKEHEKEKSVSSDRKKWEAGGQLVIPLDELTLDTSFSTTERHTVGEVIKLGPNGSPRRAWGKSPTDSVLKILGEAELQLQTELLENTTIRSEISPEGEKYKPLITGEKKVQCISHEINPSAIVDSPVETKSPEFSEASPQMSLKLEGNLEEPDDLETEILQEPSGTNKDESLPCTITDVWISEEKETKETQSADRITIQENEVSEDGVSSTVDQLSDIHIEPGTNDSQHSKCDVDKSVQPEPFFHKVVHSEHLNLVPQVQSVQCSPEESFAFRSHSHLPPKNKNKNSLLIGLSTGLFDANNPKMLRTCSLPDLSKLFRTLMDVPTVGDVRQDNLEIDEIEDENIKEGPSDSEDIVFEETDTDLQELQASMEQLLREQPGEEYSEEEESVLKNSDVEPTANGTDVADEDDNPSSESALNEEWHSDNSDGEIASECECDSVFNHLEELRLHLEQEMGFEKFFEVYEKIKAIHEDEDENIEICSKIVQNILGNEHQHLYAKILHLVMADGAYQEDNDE

COc1cc(N2CCC(N3CCN(C)CC3)CC2)ccc1Nc1ncc2c(n1)N(C)c1ccccc1C(=O)N2C
inhibition [1]: 94%
residual activity [2]: 99%
inhibition [3]: 89%
residual activity [4]: 79%
inhibition [5]: 100%
residual activity [6]: 98%
inhibition [7]: 100%
residual activity [8]: 4.2%
inhibition [9]: 100%
inhibition [10]: 100%
inhibition [11]: 31%
residual activity [12]: 95%
inhibition [13]: 100%
inhibition [14]: 76%
residual activity [15]: 0%
inhibition [16]: 55%
inhibition [17]: 21%
inhibition [18]: 77%
residual activity [19]: 75%
residual activity [20]: 83%
inhibition [21]: 89%
residual activity [22]: 16%
inhibition [23]: 100%
inhibition [24]: 100%
inhibition [25]: 100%
residual activity [26]: 84%
inhibition [27]: 100%

CCOc1cc(C(=O)N2CCC(N3CCN(C)CC3)CC2)ccc1Nc1ncc2c(n1)N(C1CCCC1)c1ccccc1C(=O)N2C
inhibition [28]: inactive
